{"source": "patent US20050197338A1", "about": "“Substituted pyrazole urea compounds for the treatment of inflammation” (priority 2003, published 2005)", "data": [{"target": "T1, Rat IKK-2 (Rattus norvegicus, UniProt Q9QY78)", "T1 sequence (Q9QY78 1-757)": "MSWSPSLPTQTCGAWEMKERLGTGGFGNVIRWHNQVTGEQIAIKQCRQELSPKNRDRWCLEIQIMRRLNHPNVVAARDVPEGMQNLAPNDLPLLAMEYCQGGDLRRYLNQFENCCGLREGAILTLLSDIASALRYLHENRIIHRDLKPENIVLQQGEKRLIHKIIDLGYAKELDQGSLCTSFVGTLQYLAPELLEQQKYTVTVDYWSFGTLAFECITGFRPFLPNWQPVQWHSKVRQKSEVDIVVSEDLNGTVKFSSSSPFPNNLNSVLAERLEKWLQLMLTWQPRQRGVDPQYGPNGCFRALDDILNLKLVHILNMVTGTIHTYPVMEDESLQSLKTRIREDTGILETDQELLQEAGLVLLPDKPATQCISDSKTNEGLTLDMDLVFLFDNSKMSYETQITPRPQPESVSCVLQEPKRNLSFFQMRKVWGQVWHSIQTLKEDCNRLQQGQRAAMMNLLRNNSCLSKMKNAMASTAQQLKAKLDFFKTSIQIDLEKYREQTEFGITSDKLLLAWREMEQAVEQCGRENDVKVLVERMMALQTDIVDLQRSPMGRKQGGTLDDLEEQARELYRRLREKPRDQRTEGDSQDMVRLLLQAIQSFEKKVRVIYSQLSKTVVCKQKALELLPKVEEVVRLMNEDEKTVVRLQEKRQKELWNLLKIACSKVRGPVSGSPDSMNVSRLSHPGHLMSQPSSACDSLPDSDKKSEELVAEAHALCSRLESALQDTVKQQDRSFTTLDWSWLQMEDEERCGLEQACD", "assay": "Rat IKK-2 enzyme assay", "format": "biochemical", "conditions": "read-out: IC50 (μM) rIKK-2", "procedure": "Kinase activity was measured using a biotinylated […] peptide (Gly-Leu-Lys-Lys-Glu-Arg-Leu-Leu-Asp-Asp-Arg-His-Asp-Ser32-Gly-Leu-Asp-Ser36-Met-Lys-Asp-Glu-Glu) (American Peptide Co.). 20 μL of the standard reaction mixture contained 5 μM biotinylated IκBα peptide, 0.1 μCi/reaction [γ-^33P] ATP (Amersham) (about 1×10^5 cpm), 1 μM ATP (Sigma), 1 mM DTT (Sigma), 2 mM MgCl2 (Sigma), 2 mM MnCl2 (Sigma), 10 mM NaF (Sigma), 25 mM Hepes (Sigma) buffer, pH. 7.6 and 20 μL enzyme solution (50 nM/rxn or 200 ng/rxn) and 10 μL inhibitor in a final volume of 50 μL. After incubation at 25° C. for 60 min, 150 μL resin was added to each well to stop the reaction. Resin was mixed and allowed to settle for 1 h and 50 μL of supernatant was removed to a Micolite 2 flat bottom plate (Dynex). 150 μL of scintillation fluid (Microscint 40) (Packard) was added to each well. Incorporation of [γ-^33P] ATP was measured using a Top-Count NXT (Packard).", "units": {"IC50": "µM"}, "values": [{"smiles": "NC(=O)Nc1cn(-c2cccc(F)c2)nc1C(N)=O", "note": "[Example 316, 1-(3-fluoro-phenyl)-4-ureido-1H-pyrazole-3-carboxylic acid amide]", "IC50": 0.533}, {"smiles": "NC(=O)Nc1cn(-c2ccc(Br)c(O)c2)nc1C(N)=O", "note": "[Example 276, 4-[(aminocarbonyl)amino]-1-(4-bromo-3-hydroxyphenyl)-1H-pyrazole-3-carboxamide]", "IC50": 0.194}, {"smiles": "NC(=O)Nc1cn(-c2ccc(-c3ccc(O)cc3)c(F)c2)nc1C(N)=O", "note": "[Example 264, 4-[(aminocarbonyl)amino]-1-(2-fluoro-4′-hydroxy-1,1′-biphenyl-4-yl)-1H-pyrazole-3-carboxamide]", "IC50": 0.17}, {"smiles": "NC(=O)Nc1cn(-c2ccc(Sc3cccc(Br)c3)cc2)nc1C(N)=O", "note": "[Example 293, 1-(1-(4-(3-bromophenylthio)phenyl)-3-carbamoyl-1H-pyrazol-4-yl)urea]", "IC50": 4.82}, {"smiles": "CCOc1cc(-n2cc(NC(N)=O)c(C(N)=O)n2)ccc1-c1ccc(OCC(N)=O)cc1", "note": "[Example 275, 4-[(aminocarbonyl)amino]-1-[4′-(2-amino-2-oxoethoxy)-2-ethoxy-1,1′-biphenyl-4-yl]-1H-pyrazole-3-carboxamide]", "IC50": 10.8}, {"smiles": "Cc1cc(-n2cc(NC(N)=O)c(C(N)=O)n2)ccc1Sc1cccc(F)c1", "note": "[Example 311, 1-[4-(3-fluoro-phenylsulfanyl)-3-methyl-phenyl]-4-ureido-1H-pyrazole-3-carboxylic acid amide]", "IC50": 2.33}, {"smiles": "NC(=O)Nc1cn(-c2ccc(S(=O)(=O)c3ccncc3)cc2)nc1C(N)=O", "note": "[Example 295, 1-(3-carbamoyl-1-(4-(pyridin-4-ylsulfonyl)phenyl)-1H-pyrazol-4-yl)urea]", "IC50": 0.0369}, {"smiles": "Cc1cc(-n2cc(NC(N)=O)c(C(N)=O)n2)ccc1F", "note": "[Example 304, 4-[(aminocarbonyl)amino]-1-(4-fluoro-3-methylphenyl)-1H-pyrazole-3-carboxamide]", "IC50": 0.547}, {"smiles": "CCc1ccccc1-n1cc(NC(N)=O)c(C(N)=O)n1", "note": "[Example 314, 1-(2-ethyl-phenyl)-4-ureido-1H-pyrazole-3-carboxylic acid amide]", "IC50": "> 20"}, {"smiles": "COc1ccc(-n2cc(NC(N)=O)c(C(N)=O)n2)cc1OC", "note": "[Example 330, 4-[(aminocarbonyl)amino]-1-(3,4-dimethoxyphenyl)-1H-pyrazole-3-carboxamide]", "IC50": 1.78}, {"smiles": "NC(=O)Nc1cn(-c2ccc(S(=O)(=O)c3ccccc3F)c(Cl)c2)nc1C(N)=O", "note": "[Example 271, 4-[(aminocarbonyl)amino]-1-{3-chloro-4-[(2-fluorophenyl)sulfonyl]phenyl}-1H-pyrazole-3-carboxamide]", "IC50": 0.956}, {"smiles": "Cc1cc(-n2cc(NC(N)=O)c(C(N)=O)n2)ccc1S(=O)(=O)c1cccc(F)c1", "note": "[Example 312, 1-[4-(3-fluoro-benzenesulfonyl)-3-methyl-phenyl]-4-ureido-1H-pyrazole-3-carboxylic acid amide]", "IC50": 0.975}, {"smiles": "NC(=O)Nc1cn(-c2ccc(OC(F)(F)F)cc2)nc1C(N)=O", "note": "[Example 328, 4-[(aminocarbonyl)amino]-1-[4-(trifluoromethoxy)phenyl]-1H-pyrazole-3-carboxamide]", "IC50": 0.446}, {"smiles": "Cc1ccccc1-n1cc(NC(N)=O)c(C(N)=O)n1", "note": "[Example 318, 1-o-tolyl-4-ureido-1H-pyrazole-3-carboxylic acid amide]", "IC50": 8.52}, {"smiles": "COc1ccc(F)cc1-c1ccc(-n2cc(NC(N)=O)c(C(N)=O)n2)cc1F", "note": "[Example 269, 4-[(aminocarbonyl)amino]-1-(2,5′-difluoro-2′-methoxy-1,1′-biphenyl-4-yl)-1H-pyrazole-3-carboxamide]", "IC50": 0.781}, {"smiles": "COc1ccccc1-c1ccc(-n2cc(NC(N)=O)c(C(N)=O)n2)cc1F", "note": "[Example 267, 4-[(aminocarbonyl)amino]-1-(2-fluoro-2′-methoxy-1,1′-biphenyl-4-yl)-1H-pyrazole-3-carboxamide]", "IC50": 2.75}, {"smiles": "CCCc1ccc(-n2cc(NC(N)=O)c(C(N)=O)n2)cc1", "note": "[Example 305, 4-[(aminocarbonyl)amino]-1-(4-propylphenyl)-1H-pyrazole-3-carboxamide]", "IC50": 0.098}, {"smiles": "Cc1cccc(Sc2ccc(-n3cc(NC(N)=O)c(C(N)=O)n3)cc2)c1", "note": "[Example 292, 1-(1-(4-(m-tolylthio)phenyl)-3-carbamoyl-1H-pyrazol-4-yl)urea]", "IC50": 4.16}, {"smiles": "NC(=O)Nc1cn(-c2ccc(-c3ccc(O)c(F)c3)c(F)c2)nc1C(N)=O", "note": "[Example 265, 4-[(aminocarbonyl)amino]-1-(2,3′-difluoro-4′-hydroxy-1,1′-biphenyl-4-yl)-1H-pyrazole-3-carboxamide]", "IC50": 6.16}, {"smiles": "NC(=O)Nc1cn(-c2ccc(-c3cc(F)ccc3O)c(F)c2)nc1C(N)=O", "note": "[Example 263, 4-[(aminocarbonyl)amino]-1-(2,5′-difluoro-2′-hydroxy-1,1′-biphenyl-4-yl)-1H-pyrazole-3-carboxamide]", "IC50": 0.482}, {"smiles": "NC(=O)Nc1cn(-c2ccc(-c3ccc(O)cc3)c(Cl)c2)nc1C(N)=O", "note": "[Example 272, 4-[(aminocarbonyl)amino]-1-(2-chloro-4′-hydroxy-1,1′-biphenyl-4-yl)-1H-pyrazole-3-carboxamide]", "IC50": 0.167}, {"smiles": "NC(=O)COc1ccccc1-c1ccc(-n2cc(NC(N)=O)c(C(N)=O)n2)cc1F", "note": "[Example 266, 4-[(aminocarbonyl)amino]-1-[2′-(2-amino-2-oxoethoxy)-2-fluoro-1,1′-biphenyl-4-yl]-1H-pyrazole-3-carboxamide]", "IC50": 0.392}, {"smiles": "CCCOc1ccc(-n2cc(NC(N)=O)c(C(N)=O)n2)cc1C", "note": "[Example 306, 4-[(aminocarbonyl)amino]-1-(3-methyl-4-propoxyphenyl)-1H-pyrazole-3-carboxamide]", "IC50": 0.766}, {"smiles": "CCCOc1ccc(-n2cc(NC(N)=O)c(C(N)=O)n2)cc1", "note": "[Example 332, 4-[(aminocarbonyl)amino]-1-(4-propoxyphenyl)-1H-pyrazole-3-carboxamide]", "IC50": 1.08}, {"smiles": "CCCOc1ccc(-n2cc(NC(N)=O)c(C(N)=O)n2)cc1Cl", "note": "[Example 334, 4-[(aminocarbonyl)amino]-1-(3-chloro-4-propoxyphenyl)-1H-pyrazole-3-carboxamide]", "IC50": 2.42}, {"smiles": "Cc1cc(O)ccc1-c1ccc(-n2cc(NC(N)=O)c(C(N)=O)n2)cc1C", "note": "[Example 309, 1-(4′-hydroxy-2,2′-dimethyl-biphenyl-4-yl)-4-ureido-1H-pyrazole-3-carboxylic acid amide]", "IC50": 0.086}, {"smiles": "NC(=O)Nc1cn(-c2cccc(C(F)(F)F)c2)nc1C(N)=O", "note": "[Example 317, 1-(3-trifluoromethyl-phenyl)-4-ureido-1H-pyrazole-3-carboxylic acid amide]", "IC50": 1.46}, {"smiles": "NC(=O)Nc1cn(-c2cccc3c2sc2ccccc23)nc1C(N)=O", "note": "[Example 324, 4-[(aminocarbonyl)amino]-1-dibenzo[b,d]thien-4-yl-1H-pyrazole-3-carboxamide]", "IC50": "> 20"}, {"smiles": "Cc1ccc(-n2cc(NC(N)=O)c(C(N)=O)n2)cc1F", "note": "[Example 326, 4-[(aminocarbonyl)amino]-1-(3-fluoro-4-methylphenyl)-1H-pyrazole-3-carboxamide]", "IC50": 0.365}, {"smiles": "NC(=O)Nc1cn(-c2cccc(Cl)c2F)nc1C(N)=O", "note": "[Example 273, 1-(3-chloro-2-fluoro-phenyl)-4-ureido-1 h-pyrazole-3-carboxylic acid amide]", "IC50": 0.203}, {"smiles": "NC(=O)Nc1cn(-c2cccc(O)c2)nc1C(N)=O", "note": "[Example 300, 1-(3-hydroxy-phenyl)-4-ureido-1H-pyrazole-3-carboxylic acid amide]", "IC50": 0.378}, {"smiles": "Cc1cccc(-n2cc(NC(N)=O)c(C(N)=O)n2)c1", "note": "[Example 315, 1-m-tolyl-4-ureido-1H-pyrazole-3-carboxylic acid amide]", "IC50": 0.632}, {"smiles": "NC(=O)COc1cc(F)ccc1-c1ccc(-n2cc(NC(N)=O)c(C(N)=O)n2)cc1F", "note": "[Example 268, 4-[(aminocarbonyl)amino]-1-[2′-(2-amino-2-oxoethoxy)-2,4′-difluoro-1,1′-biphenyl-4-yl]-1H-pyrazole-3-carboxamide]", "IC50": 0.175}, {"smiles": "Cc1cc(-n2cc(NC(N)=O)c(C(N)=O)n2)ccc1-c1ccc(O)c(F)c1", "note": "[Example 310, 1-(3′-fluoro-4′-hydroxy-2-methyl-biphenyl-4-yl)-4-ureido-1H-pyrazole-3-carboxylic acid amide]", "IC50": 0.095}]}]}
